# Measurements from article PMC11324870, “Branched-chain amino acid transaminase 1 confers EGFR-TKI resistance through epigenetic glycolytic activation” (Signal Transduction and Targeted Therapy, 2024).
# Target: T1, BCAT1 (branched-chain amino acid transaminase 1) (Homo sapiens, UniProt P54687)
# T1 construct: recombinant human BCAT1 Protein (Sino Biological, #ME16FE2265)
# T1 sequence (P54687 1-386): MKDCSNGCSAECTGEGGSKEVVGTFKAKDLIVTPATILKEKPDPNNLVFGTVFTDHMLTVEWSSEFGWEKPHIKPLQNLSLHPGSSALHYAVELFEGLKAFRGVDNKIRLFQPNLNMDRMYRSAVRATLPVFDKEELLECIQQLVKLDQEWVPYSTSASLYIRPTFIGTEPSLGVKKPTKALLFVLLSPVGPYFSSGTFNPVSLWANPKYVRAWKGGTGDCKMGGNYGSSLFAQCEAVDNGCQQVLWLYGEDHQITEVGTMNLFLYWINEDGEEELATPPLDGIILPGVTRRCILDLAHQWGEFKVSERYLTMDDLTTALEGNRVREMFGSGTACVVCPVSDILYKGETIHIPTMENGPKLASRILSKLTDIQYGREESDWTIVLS
# Assay: coupled fluorescence (resazurin) enzyme activity assay with purified recombinant BCAT1; also CETSA in […] cells
# Format: biochemical
structure (smiles),measurement,value
NCC1(CC(=O)O)CC2CCC1C2 (racemic) [WQQ-345],IC50,10.8 mM
